Entries after “also recorded” stand apart in the source; their conditions may differ.
Experiments:
[1] = tested on: NK92 cells; test: NK cell proliferation rate using CCK-8; assay type: cell-based, Human; settings: 1-10000 nM, 72 h, FIG. 1
Description: 3. Determination of NK Cell Proliferation Rate Using CCK-8 after Treatment with 1778 3.1 Preparation of Compound Concentration Gradient: Dilute the azaphilone compound 1778 with double-distilled water to set up 5 concentrations, with final concentrations of 1, 10, 100, 1000, and 10000 nM in the wells.
Seed NK92 cells obtained from 1.3 into 96-well cell culture plate (referred to as a 96-well plate) at a concentration of 1×10^4 cells/well, […]. Set up 5 replicates for each compound concentration (also need to set a blank group, that is, double-distilled water replaces the compound), and seal wells with PBS. Incubate in a 37° C., 5% CO2 incubator for 72 h.
Remove the cell culture plates from 2.2 and add 10 μL of CCK-8 solution (Shanghai Yisheng Biotechnology Co., Ltd.) to each well, avoiding bubbles. After adding CCK-8 solution, incubate the 96-well cell culture plates in a 37° C., 5% CO2 incubator for 2.5 h. Measure the absorbance at 450 nm using a microplate reader to compare the proliferation level of NK92 cells.

[2] = tested on: cancer cell lines; test: In vitro assays of cancer cell lines; assay type: cell-based; settings: direct activity on cancer cell lines; read-out: IC50 in all in vitro assays of cancer cell lines
Description: In prior research (Sun C.; Ge X.; Mudassir S.; Zhou L.; Yu G.; Che Q.; Zhang G.; Peng J.; Gu Q.; Zhu T. New glutamine-containing azaphilone alkaloids from deep-sea-derived fungus Chaetomium globosum HDN151398. Mar. Drugs 2019, 17, 253.), the inventors discovered compound 1778.

[3] = tested on: primary NK cells isolated from the peripheral blood of healthy individuals; test: Primary NK cell activation (CD107 flow cytometry), peripheral blood PBMCs from healthy donors; assay type: cell-based, Human; settings: 1, 10, 100 nM, 72 h, K562 targets 5:1, FIG. 6
Description: (§1) CD107 is expressed on the surface of NK cells released by the activator. Therefore, the activation of NK cells can be reflected by detecting the content of CD107 expressed by cell membrane.
(§2) 6.1 Collect peripheral blood from normal individuals and pleural effusion from lung cancer patients using sterile anticoagulant tubes, and dilute with an equal volume of sterile PBS. Take a 50 ml centrifuge tube and absorb a certain volume of lymphocyte separation solution (Solarbio Science & Technology Co., Ltd.). Slowly add diluted peripheral blood and pleural effusion in a volume ratio of 4:3. Centrifuge at 400 g at room temperature for 30 min (Adjust the lifting and deceleration speed of the centrifuge to rise 1 or down 1). 6.2 Carefully absorb the white lymphocyte layer in the middle and place it in PBS (at least three times the volume of the absorbed cells). Overturn and blending, and wash the cells. Centrifuge at 100 g at room temperature for 10 min. Discard the supernatant, resuspend the cell pellet in 10 ml PBS, and gently mix. Wash off residual Ficoll, then centrifuge again at 100 g for 10 min. Discard the supernatant, resuspend the cell pellet in RPMI-1640 complete medium, and continue culture for 3 days with RPMI-1640 complete medium containing 10 ng/ml IL-2 to stimulate primary NK cell expansion and activation. […] The detection results were analyzed using FlowJo software.

[4] = tested on: B16F10 melanoma cells; test: Melanoma lung metastasis model in C57BL/6 mice; assay type: in vivo; settings: 25 mg/kg daily intraperitoneal, 14 days; B16F10 via tail vein; FIG. 8
Description: To investigate whether 1778 works in vivo, we used a melanoma lung metastasis model.
Mouse B16F10 melanoma cells were intravenously injected into mice, and then 1778 was administered for efficacy evaluation. B116F10 cells are highly metastatic and lack MHC class-I expression, and it has been previously reported that the metastasis of B116F10 cells in vivo is mainly controlled by NK cells.
7.1 Inject 200,000 B116F10 cells via the tail vein into each C57BL/6J mouse. 7.2 A daily intraperitoneal injection of 1778 at a dose of 25 mg/kg (diluted with PBS solution to a final volume of 200 μL). The control group was injected intraperitoneally with an equivalent volume of PBS (with the same concentration of solvent DMSO). Weigh the mice every other day to monitor the impact on body weight. After 14 days of drug administration, euthanize the mice, collect lung tissue, and fix it in tissue fixative. Count and statistically analyze the number of melanoma colonies in the lungs.

[5] = tested on: NK92 cells; test: NK cell activation factor release (ELISA) after co-culture with NCI-H1975; assay type: cell-based, Human
Description: NK cells release granzyme B and perforin to kill tumor cells upon activation, while release IFN-γ to regulate the mechanism of antitumor immunity.
5.1 Pre-treatment of NK92 Cells with Compound 1778: Seed NK92 cells into a 24-well plate and treat with drug as described in section 3.1.
Seed logarithmic phase NCI-H1975 cells into 96-well plates at a concentration of 1×10^4 cells/well. Set up 3 replicates for each concentration and control wells for target cell. Incubate the 96-well plate overnight in a 37° C., 5% CO2 incubator.
According to the effector-to-target ratio of 5:1, add NK92 cells to NCI-H1975, co-cultivate for over 6 h and centrifuge (500 g, 25° C.). Then collect supernatant (use within 24 h). Use ELISA kits (BD Biosciences, USA) to detect the release of 3 activating cytokines granzyme B (FIG. 3), perforin (FIG. 4), and IFN-γ (FIG. 5).

[6] = tested on: NK92 cells; test: Killing function of NK92 cells against tumor cells after compound treatment (LDH assay, initial screening); assay type: cell-based, Human; settings: for cytotoxicity at 0.1 µM: Homo sapiens, NK92 treated at 100 nM for 72 h, effector-to-target ratio 5:1, 5 h co-culture, LDH release, read-out: tumor killing rate by NK activation
Description: (§3) Seed the NK92 cells obtained from 1.3 into a 24-well cell culture plate (referred to as a 24-well plate) at a concentration of 3×10^5 cells/well, with 4 wells designated as blank or drug-treated. For the drug-treated wells, set the initial screening concentration to 100 nM. Add 900 μL of cell suspension and 100 μL of drug to each well. For the blank wells, add 100 μL of double-distilled water. Incubate the 24-well plate in a 37° C., 5% CO2 incubator for 72 h. Replace the fresh culture medium and add drugs every 24 h during the incubation.
(§4) Seed various types of tumor cells in logarithmic phase into a 96-well cell culture plate at a concentration of 5×10^3 cells/well. Set up 3 replicate wells for each concentration and include wells for target cell spontaneous release and target cell maximum release. Incubate the 96-well plate overnight in a 37° C., 5% CO2 incubator.
Centrifuge and count the NK92 cells from 2.1 in the 24-well plate cultured for 72 h. Add the cells to the overnight-cultured tumor target cells according to the effector-to-target ratio of 5:1 (excluding wells for target cell spontaneous release and maximum release). Also, set up 3 effector cell control wells. Add 200 μL of cell suspension to each well, then centrifuge at 300 g, 25° C. for 5 min to allow sufficient contact between effector cells and target cells. Continue to place the 96 well plate in a 37° C., 5% CO2 incubator and co-cultivate the NK92 and target cells for 5 h.
Lactate dehydrogenase (LDH) assay kit (BioGend Biotech Co., Ltd.) is used to detect the killing effect of effector cells on target cells. Add LDH release reagent to the wells with target cell maximum release and incubate for 1 h. After 1 h, centrifuge at 500 g, 25° C. for 5 min. Transfer 120 μL of supernatant from each well to a new 96-well plate, add the prepared LDH detection solution (60 μL/well: 20 μL lactate solution, 20 μL 1×INT working solution, and 20 μL enzyme solution) in the dark, and mix well by pipetting. Incubate at room temperature in the dark for 20 min (wrapped in aluminum foil and shook slowly on a shaker). Measure the absorbance at 490 nm using a microplate reader and the measured absorbance value of each well should subtract the absorbance value of the background blank control well.
Cytotoxicity (%)=[(Experimental group−Effector cell control−Target cell spontaneous release)/(Target cell maximum release−Target cell spontaneous release)]×100.

[7] = tested on: primary NK cells from the pleural fluid of lung cancer patients; test: Primary NK cell activation (CD107 flow cytometry), pleural effusion from lung cancer patients; assay type: cell-based, Human; settings: 1, 10, 100 nM, 72 h, K562 targets 5:1, FIG. 7
Description: as §1, §2

[8] = tested on: NK92 cells; test: Killing ability of NK cell against tumor cells after treatment with 1778 (1, 10, 100 nM); assay type: cell-based, Human
Description: as §3, §4
Centrifuge and count the NK92 cells from 2.1 in the 24-well plate cultured for 72 h. […]
Lactate dehydrogenase (LDH) assay kit (BioGend Biotech Co., Ltd.) is used to detect the killing effect of effector cells on target cells. […] Measure the absorbance at 490 nm using a microplate reader and the measured absorbance value of each well should subtract the absorbance value of the background blank control well. […]

SMILES	cytotoxicity at 0.1 µM [6]	also measured
C/C=C(\C)C(=O)C1=C2C3=CN([C@@H](CCC(=O)O)C(=O)O)C(/C=C/[C@@H](C)CC)=CC3=C(Cl)C(=O)[C@@]2(C)OC1=O [Compound 1778]	75.2%	proliferation of NK92 cells [1]: weak proliferative effect; also recorded: promotes the proliferation; IC50 [2]: > 50 µM; expression of CD107 (degranulation) in primary NK cells [3]: significantly promotes the degranulation; also recorded: significant increase; number of lung metastases (melanoma colonies in the lungs) [4]: significant inhibitory effect; also recorded: significantly reduced; release of granzyme B by NK-92 cells ([5]; co-culture with NCI-H1975, 5:1, FIG. 3): promotes the releases; also recorded: significantly promotes the release; release of perforin by NK-92 cells ([5]; co-culture with NCI-H1975, 5:1, FIG. 4): promotes the releases; also recorded: significantly promotes the release; release of IFN-γ by NK-92 cells ([5]; co-culture with NCI-H1975, 5:1, FIG. 5): significantly promotes the release; also recorded: promotes the releases; activation effect on NK92 cells ([6]; summary in words of the 100 nM screening table): very strong activation effect; expression of CD107 (degranulation) in primary NK cells [7]: significantly promotes the degranulation; also recorded: significant increase; ability of NK92 cells to kill various types of tumor cells ([8]; 1, 10, 100 nM, FIG. 2): significantly enhances; also recorded: significantly promotes the killing activity; concentration at which NK cells are activated ([8]; concentrations as low as): 1 to 100 nM
C/C=C(\C)C(=O)C1=C2C3=CN([C@@H](CCC(=O)OC)C(=O)OC)C(/C=C/[C@@H](C)CC)=CC3=C(Cl)C(=O)[C@@]2(C)OC1=O [Compound 1779]	22%	
CC[C@H](C)/C=C(C)/C=C/C1=CC2=C(Cl)C(=O)[C@](C)(OC(C)=O)C(=O)C2=CN1[C@H](C(=O)O)[C@@H](C)O [Compound 2309]	28.3%	
C/C=C(\C)C(=O)C1=C2C3=CN([C@@H](Cc4c[nH]c5ccccc45)C(=O)O)C(/C=C/[C@@H](C)CC)=CC3=C(Cl)C(=O)[C@@]2(C)OC1=O [Compound 2318]	35.9%	
CC[C@H](C)/C=C(C)/C=C/C1=CC2=C(Cl)C(=O)[C@](C)(OC(C)=O)C(=O)C2=CN1CCO [Compound 2308]	8.11%	
CC[C@H](C)/C=C(C)/C=C/C1=CC2=C(Cl)C(=O)[C@](C)(OC(C)=O)C(=O)C2=CN1[C@@H](CC(C)C)C(=O)O [Compound 2001]	18.7%	
CC[C@H](C)/C=C(C)/C=C/C1=CC2=C(Cl)C(=O)[C@](C)(OC(C)=O)C(=O)C2=CN1[C@@H](Cc1ccc(O)cc1)C(=O)O [Compound 1997]	29.5%	
CC[C@H](C)/C=C(C)/C=C/C1=CC2=C(Cl)C(=O)[C@](C)(OC(C)=O)C(=O)C2=CO1 [Compound 2307]	38.3%	
CC[C@H](C)/C=C(C)/C=C/C1=CC2=C(Cl)C(=O)[C@](C)(OC(C)=O)C(=O)C2=CN1[C@@H](C)C(=O)O [Compound 1998]	78.4%	
C/C=C(\C)C(=O)C1=C2C3=CN([C@@H](Cc4c[nH]cn4)C(=O)O)C(/C=C/[C@@H](C)CC)=CC3=C(Cl)C(=O)[C@@]2(C)OC1=O [Compound 2320]	22.2%	
CC[C@H](C)/C=C(C)/C=C/C1=CC2=C(Cl)C(=O)[C@](C)(OC(C)=O)C(=O)C2=CN1[C@@H](Cc1ccccc1)C(=O)O [Compound 2000]	65.2%	
CC[C@H](C)/C=C(C)/C=C/C1=CC2=C(Cl)C(=O)[C@](C)(OC(C)=O)C(=O)C2=CN1CC(=O)O [Compound 1996]	6.12%	
CC[C@H](C)/C=C(C)/C=C/C1=CC2=C(Cl)C(=O)[C@](C)(OC(C)=O)C(=O)C2=CN1[C@@H](CO)C(=O)O [Compound 1999]	58.3%	
